The results in this text go back to patent US20100099756A1, “USES OF INCENSOLE, INCENSOLE ACETATE AND DERIVATIVES THEREOF” (YISSUM RESEARCH DEVELOPMENT COMPANY OF THE HEBREW …, priority 2006, published 2010).

In assay [1] the test system is locomotion and cataleptic response. The experiment in a line: Open field test and ring test. The assay is classed as in vivo, female Sabra mice. The note with it: i.p., Sabra mice. As to the method:
To study the functional effects of IA on the CNS, IA was assayed in a panel of standard behavioral assays in mice (female Sabra strain, 15-20 weeks old), namely: the elevated plus maze [Crawley, J. N. What's Wrong with my Mouse? Behavioral Phenotyping of Transgenic and Knockout Mice (Wiley-Liss, New York, 2000)], the Porsolt forced-swimming test [Petit-Demouliere, B., Chenu, F. & Bourin, M. Forced swimming test in mice: a review of antidepressant activity. Psychopharmacology 177, 245-255 (2005)], locomotion in the open field test and cataleptic response in a ring test [Fride, E. & Mechoulam, R. Pharmacological activity of the cannabinoid receptor agonist, anandamide, a brain constituent. Eur. J. Pharmacol. 231, 313-314 (1993). The elevated plus maze assay is based on the preference of mice for the closed arms of a maze, apparently due to fear of open spaces.

In the next assay the target is T1, rat TRPV4 (Rattus norvegicus, UniProt Q9ERZ8).
T1 construct: expressed in transfected cells; host or cells: HEK293 cell line
T1 sequence (Q9ERZ8 whole entry): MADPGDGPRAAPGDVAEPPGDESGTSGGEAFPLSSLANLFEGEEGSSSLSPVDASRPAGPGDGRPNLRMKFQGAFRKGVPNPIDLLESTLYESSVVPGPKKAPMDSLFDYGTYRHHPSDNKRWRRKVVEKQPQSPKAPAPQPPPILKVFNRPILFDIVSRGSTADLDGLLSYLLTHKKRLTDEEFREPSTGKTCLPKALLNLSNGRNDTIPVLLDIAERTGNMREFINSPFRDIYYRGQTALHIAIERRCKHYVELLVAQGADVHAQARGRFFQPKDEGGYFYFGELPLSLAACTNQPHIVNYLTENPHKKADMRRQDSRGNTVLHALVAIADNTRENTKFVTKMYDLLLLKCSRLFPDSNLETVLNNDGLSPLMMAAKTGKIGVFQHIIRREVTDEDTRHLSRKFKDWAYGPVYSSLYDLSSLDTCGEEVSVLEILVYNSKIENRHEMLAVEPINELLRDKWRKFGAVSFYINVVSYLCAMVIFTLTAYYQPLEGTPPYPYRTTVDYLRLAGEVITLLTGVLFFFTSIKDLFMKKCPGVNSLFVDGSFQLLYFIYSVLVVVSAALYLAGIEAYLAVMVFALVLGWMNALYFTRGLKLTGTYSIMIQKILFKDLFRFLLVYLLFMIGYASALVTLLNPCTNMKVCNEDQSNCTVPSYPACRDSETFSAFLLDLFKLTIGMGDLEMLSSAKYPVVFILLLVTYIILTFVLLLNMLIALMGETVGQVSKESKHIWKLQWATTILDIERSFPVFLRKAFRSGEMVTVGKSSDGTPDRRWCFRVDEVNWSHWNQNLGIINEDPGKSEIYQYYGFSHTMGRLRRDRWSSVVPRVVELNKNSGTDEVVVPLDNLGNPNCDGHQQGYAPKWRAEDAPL
The experiment in a line: Calcium imaging of TRPV4 transfected HEK293 cells. The assay is classed as cell-based. The conditions noted are these: IA 100 μM, compared to vehicle. As to the method:
All error bars indicate SEM; p values in all subfigures but c represent analysis with one-way ANOVA Bonferroni's post hoc.
TRPV3-YFP [O'dell, D. K., Rimmerman, N., Pickens, S. R. & Walker J. M. Fatty acyl amides of endogenous tetrahydroisoquinolines are active at the recombinant human TRPV1 receptor. Bioorg. Med. Chem. 15, 6164-6169 (2007)], TRPV4 and mock-transfected cell lines were cultured in DMEM 1× with L-glutamine (Mediatech, Inc. Herndon, Va.), containing 1% penicillin-streptomycin (Invitrogen, Carlsbad, Calif.) and 10% foetal bovine serum.
Calcium imaging of HEK 293 cells. TRPV1, TRPV3, and TRPV4 expressing HEK293 cells were plated 24-48 h before imaging in 96 well plates, loaded with 3 μM Fura-2 AM and imaged as previously described [O'dell, D. K., Rimmerman, N., Pickens, S. R. & Walker J. M. Fatty acyl amides of endogenous tetrahydroisoquinolines are active at the recombinant human TRPV1 receptor. Bioorg. Med. Chem. 15, 6164-6169 (2007)].

The target of a further assay is T2, TRPV3 (Mus musculus, UniProt Q8K424).
T2 sequence (Q8K424 1-791): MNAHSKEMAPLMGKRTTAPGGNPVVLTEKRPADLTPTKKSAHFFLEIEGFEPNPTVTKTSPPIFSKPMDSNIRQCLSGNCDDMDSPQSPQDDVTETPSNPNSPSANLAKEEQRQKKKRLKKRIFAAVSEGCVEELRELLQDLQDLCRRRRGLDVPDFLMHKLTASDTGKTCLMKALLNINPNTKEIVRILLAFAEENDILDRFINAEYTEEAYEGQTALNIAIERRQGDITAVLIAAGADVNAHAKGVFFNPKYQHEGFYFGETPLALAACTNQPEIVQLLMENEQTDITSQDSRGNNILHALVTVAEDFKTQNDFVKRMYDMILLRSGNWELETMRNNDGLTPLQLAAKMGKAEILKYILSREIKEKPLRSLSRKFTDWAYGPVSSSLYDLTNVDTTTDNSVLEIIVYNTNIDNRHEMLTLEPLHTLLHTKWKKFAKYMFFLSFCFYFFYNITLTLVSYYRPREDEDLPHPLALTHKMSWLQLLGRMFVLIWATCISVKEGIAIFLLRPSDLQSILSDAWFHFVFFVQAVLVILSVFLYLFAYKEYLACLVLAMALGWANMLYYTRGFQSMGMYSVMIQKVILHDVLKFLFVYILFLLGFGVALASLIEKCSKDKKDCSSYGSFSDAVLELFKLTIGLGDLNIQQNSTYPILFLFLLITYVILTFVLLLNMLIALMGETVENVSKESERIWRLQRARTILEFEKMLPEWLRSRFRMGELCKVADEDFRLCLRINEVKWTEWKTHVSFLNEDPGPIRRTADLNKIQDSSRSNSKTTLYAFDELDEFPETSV
The experiment in a line: Porsolt forced swimming test in WT and TRPV3−/− mice. The arrangement: from tissue; host or cells: whole animal, wild type C57BL/6 female mice (TRPV3 KO as control). The conditions noted are these: 75 mg/kg. The assay is classed as in vivo, C57BL/6 mice. As to the method: Wild type and TRPV3^−/− mice (18-20 weeks old) were injected with vehicle (isopropanol:emulphor:saline=1:1:18) or IA (75 mg/kg). 30 min later they were tested in a, the elevated plus maze (5 min), followed by b, 9 min exposure to the Porsolt forced-swimming test. […] Data are presented as means±SEM; n=4-5. * p<0.05, compared to WT-Vehicle-injected mice (Bonferroni post hoc test). ** p<0.01, compared to WT-Vehicle-injected mice (Bonferroni post hoc test).
Animals and procedures. Female Sabra mice (Harlan, Israel, 15-20 weeks old) and wild type C57BL/6 or TRPV3 KO female mice (18-20 weeks old) [Chung, M. K., Lee, H., Mizuno, A., Suzuki, M. & Caterina, M. J. TRPV3 and TRPV4 mediate warmth-evoked currents in primary mouse keratinocytes. J. Biol. Chem. 279, 21569-21575 (2004)] were used for behavioral assessments. 10 mice were housed in each cage. The animal care and protocols met the guidelines of the U.S. National Institutes of Health, detailed in the Guide for the Care and Use of Laboratory Animals, and were applied in conformity with the Institutional Ethics Committees. For the c-Fos immunostaining, female Sabra mice (see above) were used. Temperature in the animal room was maintained between 20-22° C., the light cycle was 12 h lights on (8:00-20:00 h); 12 h lights off (20:00-8:00 h). […]

Take `CC(=O)OC1CC/C(C)=C/CC/C(C)=C/CC2(C(C)C)CCC1(C)O2` (stereo not shown) [IA, incensole acetate]: in assay [1], the “immobility on a ring” value is “impaired immobility on a ring” and the open field behavior entry is given as “significant reduction of open field behavior”. For the same compound, the “calcium influx in TRPV4 transfected HEK293 cells” value at rat TRPV4 was “very modest calcium influx”. On TRPV3, the “immobility time, WT mice” value is “significantly reduced the immobility time”.
